Assay results from patent US20130287807A1, “COMPOUNDS FOR TREATING SYMPTOMS ASSOCIATED WITH PARKINSON'S DISEASE” (priority 2008, published 2013).
Ends that are not written are not given here.

Experiments:
[1] = tested on: monoclonal antibody MV-004; test: In vitro binding assay (ELISA), BSA-coupled peptides, parental antibody MV-004; set-up: species or system BalbC mice; conditions: Table 1B; peptide-BSA on plate, compared to original epitope
Experimental: (§1) Peptides derived from Phage Display as well as variants thereof were coupled to BSA and bound to ELISA plates (1 μM; as indicated in the respective figures) and subsequently incubated with the monoclonal antibody that was used for the screening procedure to analyse binding capacity of identified peptides.
Legend to Table 1B: the binding capacity is coded by the following binding code: 1:X describes the dilution factor of the parental AB.

[2] = tested on: monoclonal antibody MV-004; test: In vitro inhibition assay (ELISA), MV-004 binding to original epitope; set-up: species or system BalbC mice; conditions: Table 2B; OD at 10 ug peptide compared to original peptide
Experimental: (§2) Different amounts of peptides (concentrations ranging from 10 μg to 0.08 μg; serial dilutions; for MV-002: concentrations ranging from 5 μg to 0.03 μg; serial dilutions), derived from Phage Display were incubated with the monoclonal antibody that was used for the screening procedure. Peptides diminishing subsequent binding of the antibody to the original epitope coated on ELISA plates were considered as inhibiting in this assay.
(§3) Legend to Table 2B: the inhibition capacity is coded by the following code: Weak inhibition means more peptide is required to lower AB binding than with the original epitope; strong inhibition means similar peptide amounts are required for mimotope and original epitope for lowering AB binding. Mimotopes are compared to the original peptide as standard. OD at 10 ug peptide used in the assay is used to calculate the competition capacity compared to original peptide.

[3] = tested on: monoclonal antibody MV-002; test: In vitro binding assay (ELISA), BSA-coupled peptides, parental antibody MV-002; set-up: species or system C57/B16 mice; conditions: Table 1 (MV-002); peptide-BSA on plate, compared to original epitope
Experimental: as §1
Legend to Table 1: the binding capacity is coded by the following binding code: 1:X describes the dilution factor of the parental AB. Ac- . . . indicates acetylated AA.

[4] = tested on: monoclonal antibody MV-002; test: In vitro inhibition assay (ELISA), MV-002 binding to original epitope; set-up: species or system C57/B16 mice; conditions: for inhibition of binding of monoclonal antibody in in vitro competition experiments: MV-002 mimotopes
Experimental: as §2
as §3, with “2:” for “2B:”, “5” for “10”

[5] = tested on: injected peptide (mimotope-BSA conjugate); test: Mimotope vaccination, serum titer ELISA against injected peptide; type: in vivo, C57/B16 mice; conditions: 30 μg peptide-KLH s.c. with alum, anti-mouse IgG
Experimental: (§4) Inhibiting as well as non-inhibiting peptides were coupled to KLH and injected into mice (wildtype C57/B16 mice; subcutaneous injection into the flank) together with an appropriate adjuvant (aluminium hydroxide). Animals were vaccinated 3-6 times in biweekly intervals and sera were taken biweekly as well. Titers to injected peptides, as well as to an irrelevant peptide were determined with every serum. Furthermore, titers against the recombinant human Aβ protein, and against original peptides were determined respectively. In general sera were analysed by reaction against peptides coupled to Bovine Serum Albumin (BSA) and recombinant full length proteins which were immobilised on ELISA plates. Titers were determined using anti mouse IgG specific antibodies. For detailed results see FIGS. 15, 16 and 17 respectively and FIGS. 23, 24 and 25 respectively.
(§5) Female C57/b16 mice, 5-6 mice per group, were subcutaneously immunized with 30 μg peptide coupled to KLH. Control groups were administered original epitope-KLH conjugates respectively. As adjuvant alum was used (always 1 mg per mouse). […] The in vitro ELISA assay to determine the antibody titer was performed with sera of single mice after each vaccination in a two week interval (see FIGS. 15 and 16 respectively). The wells of the ELISA plate were coated with mimotope-BSA conjugate and an irrelevant peptide-BSA conjugate (negative control). The positive control was performed by reaction of the parental antibody with the respective mimotope-BSA conjugate. The detection was performed with anti-mouse IgG. Additionally, recombinant proteins were immobilised on ELISA plates and sera reacted accordingly. FIGS. 15 to 17 show representative examples for assays used to characterise mimotopes in vivo.
as §5, with “FIGS. 25” for “FIGS. 15”, “and 26” for “and 16”, “respectively). Titers were calculated as OD max/2 in all figures shown.” for “respectively).”, “FIGS. 23, 24 and 25” for “FIGS. 15 to 17”

irrelevant peptide p1454 = test: Mimotope vaccination, serum titer ELISA against irrelevant peptide; type: in vivo, C57/B16 mice; conditions: 30 μg peptide-KLH s.c. with alum
Experimental: as §4, §5
as §5, with “FIGS. 25” for “FIGS. 15”, “and 26” for “and 16”, “respectively). Titers were calculated as OD max/2 in all figures shown.” for “respectively).”, “FIGS. 23, 24 and 25” for “FIGS. 15 to 17”

p4377 = test: Mimotope vaccination, serum ELISA against p4377; type: in vivo, C57/B16 mice; conditions: peptide-KLH vaccines with alum; FIG. 24
Experimental: as §4
as §5, with “FIGS. 25” for “FIGS. 15”, “and 26” for “and 16”, “respectively). Titers were calculated as OD max/2 in all figures shown.” for “respectively).”, “FIGS. 23, 24 and 25” for “FIGS. 15 to 17”

[6] = tested on: Aβ/truncated/modified forms; test: In vivo characterisation of mimotopes: detection of Aβ/truncated/modified forms; set-up: species or system C57/B16 mice; key: +: All peptides listed in table 4 mount specific immune reactions against full length and/or truncated and modified forms of Aβ or fragments thereof; conditions: Table 4, MV-002 derived mimotopes
Experimental: as §4, §5
as §5, with “FIGS. 25” for “FIGS. 15”, “and 26” for “and 16”, “respectively). Titers were calculated as OD max/2 in all figures shown.” for “respectively).”, “FIGS. 23, 24 and 25” for “FIGS. 15 to 17”

[7] = biological target: monoclonal antibody MV-001; test: ELISA on peptide-BSA; code 1 = weak binding, OD halfmax 1:<4000
[8] = biological target: monoclonal antibody MV-001; test: inhibition ELISA, competitor coated original epitope p4371; code 1 = weaker than original epitope
[9] = biological target: monoclonal antibody MV-002; test: ELISA on peptide-BSA; code 2 = medium binding, OD halfmax 1:40000-320000
[10] = biological target: monoclonal antibody MV-002; test: ELISA on peptide-BSA; code 1 = weak binding, OD halfmax 1:<40000

## ELWHRYPC [p4420]
[1]
  Binding Capacity: 2 (medium binding :24-96000)
[2]
  Inhibition Capacity: 1 (Weaker than original epitope (OD of 10 ug peptide below 5 times of original peptide))

## ELWHRAC [p4786]
[1]
  Binding Capacity: 1 (weak binding :<24000)
[2]
  Inhibition Capacity: 1 (Weaker than original epitope (OD of 10 ug peptide below 5 times of original peptide))

## HMRLFFNC [p4670]
[3]
  Binding Capacity: 3 (strong binding :>320000)
[4]
  inhibition of binding of monoclonal antibody in in vitro competition experiments: active in in vitro inhibition assays
[4]; Table 2 (MV-002), OD at 5 ug peptide compared to original peptide
  Inhibition Capacity: 1 (Weaker than original epitope (OD of peptide below 4, 6 times of original peptide))
[5]
  immune response against injected peptide: elicited immune responses
Irrelevant peptide p1454
  immune response against unrelated sequence (p1454): failed to induce a relevant unspecific immune response
p4377
  immune response against original epitope p4377: mounted detectable immune responses
[6]
  Detection of Aβ/truncated/modified forms: +

## SHTRLYFC [p4403]
[3]
  Binding Capacity: 1 (weak binding :<40000)
[4]
  inhibition of binding of monoclonal antibody in in vitro competition experiments: without inhibition capacity
[5]
  immune response against injected peptide: elicited immune responses
Irrelevant peptide p1454
  immune response against unrelated sequence (p1454): failed to induce a relevant unspecific immune response
p4377
  immune response against original epitope p4377: mounted detectable immune responses
[6]
  Detection of Aβ/truncated/modified forms: +

## EVHHQKLVFC [p4377, reference compound]
[5]
  immune response against injected peptide: elicited immune responses
Irrelevant peptide p1454
  immune response against unrelated sequence (p1454): failed to induce a relevant unspecific immune response
p4377
  immune response against original epitope p4377: mounted detectable immune responses

## EVWHRLQC [p4419]
[1]
  Binding Capacity: 3 (strong binding :>96000)
[2]
  Inhibition Capacity: 2 (strong inhibition (as original epitope; OD of 10 ug peptide below 2 times of original peptide))

## EVWHRHC [p4789]
[1]
  Binding Capacity: 1 (weak binding :<24000)
[2]
  Inhibition Capacity: 1 (Weaker than original epitope (OD of 10 ug peptide below 5 times of original peptide))

## ELWHRAFC [p4665]
[1]
  Binding Capacity: 2 (medium binding :24-96000)
[2]
  Inhibition Capacity: 2 (strong inhibition (as original epitope; OD of 10 ug peptide below 2 times of original peptide))

## ERWHEKC [p4790]
[1]
  Binding Capacity: 1 (weak binding :<24000)
[2]
  Inhibition Capacity: 2 (strong inhibition (as original epitope; OD of 10 ug peptide below 2 times of original peptide))

## ERWHEKHC [p4418]
[1]
  Binding Capacity: 3 (strong binding :>96000)
[2]
  Inhibition Capacity: 2 (strong inhibition (as original epitope; OD of 10 ug peptide below 2 times of original peptide))

## EVWHRGC [p4788]
[1]
  Binding Capacity: 1 (weak binding :<24000)
[2]
  Inhibition Capacity: 1 (Weaker than original epitope (OD of 10 ug peptide below 5 times of original peptide))

## EVWHRHQC [p4417]
[1]
  Binding Capacity: 2 (medium binding :24-96000)
[2]
  Inhibition Capacity: 1 (Weaker than original epitope (OD of 10 ug peptide below 5 times of original peptide))

## NWFPHPC [p4392]
[7]
  OD halfmax 1:X (dilution factor of the parental antibody at half-maximal OD) (dilutionfactor(1:x)): < 4000
[8]
  OD at 10 ug peptide relative to OD of original peptide (inhibition ELISA): 2 to 3 fold

## EDWFFWHC [p4709]
[7]
  OD halfmax 1:X (dilution factor of the parental antibody at half-maximal OD) (dilutionfactor(1:x)): < 4000

## QPNLFYHC [p4713]
[7]
  OD halfmax 1:X (dilution factor of the parental antibody at half-maximal OD) (dilutionfactor(1:x)): < 4000

## HEPLFSHC [p4719]
[7]
  OD halfmax 1:X (dilution factor of the parental antibody at half-maximal OD) (dilutionfactor(1:x)): < 4000

## QELKRYYC [p4724]
[7]
  OD halfmax 1:X (dilution factor of the parental antibody at half-maximal OD) (dilutionfactor(1:x)): < 4000

## TPLMFWHC [p4733]
[7]
  OD halfmax 1:X (dilution factor of the parental antibody at half-maximal OD) (dilutionfactor(1:x)): < 4000

## TSTEMWHC [p4754]
[7]
  OD halfmax 1:X (dilution factor of the parental antibody at half-maximal OD) (dilutionfactor(1:x)): < 4000

## GQIIFQSC [p4668]
[9]
  OD halfmax dilution factor of the parental antibody (1:X) (dilutionfactor(1:x)): 40000 to 320000

## GSLFFWPC [p4688]
[9]
  OD halfmax dilution factor of the parental antibody (1:X) (dilutionfactor(1:x)): 40000 to 320000

## GTLIFHHC [p4695]
[9]
  OD halfmax dilution factor of the parental antibody (1:X) (dilutionfactor(1:x)): 40000 to 320000

## QLPLFVLC [p4700]
[10]
  OD halfmax dilution factor of the parental antibody (1:X) (dilutionfactor(1:x)): < 40000

## HQKMIFC [p4794]
[9]
  OD halfmax dilution factor of the parental antibody (1:X) (dilutionfactor(1:x)): 40000 to 320000

## GELFFEKC [p4795]
[9]
  OD halfmax dilution factor of the parental antibody (1:X) (dilutionfactor(1:x)): 40000 to 320000

## GEIRFELC [p4796]
[9]
  OD halfmax dilution factor of the parental antibody (1:X) (dilutionfactor(1:x)): 40000 to 320000

## Ac-GEIYFERC [p4804]
[9]
  OD halfmax dilution factor of the parental antibody (1:X) (dilutionfactor(1:x)): 40000 to 320000

## SGEIYFERC [p4805]
[10]
  OD halfmax dilution factor of the parental antibody (1:X) (dilutionfactor(1:x)): < 40000

## AGEIYFERC [p4806]
[10]
  OD halfmax dilution factor of the parental antibody (1:X) (dilutionfactor(1:x)): < 40000

## CGEIYFER [p4807]
[10]
  OD halfmax dilution factor of the parental antibody (1:X) (dilutionfactor(1:x)): < 40000
